According to patent US20200246465A1, “USE OF TRYPTOPHAN DERIVATIVES FOR PROTEIN FORMULATIONS” (Genentech, Inc., priority 2015, published 2020):
Several values for one entry are separate records, joined by “and”; a condition that tells them apart may be missing. Identical values can stand only once.

Key:
[1] = ICH light stress of NAT in formulation buffer, RP-HPLC at 240 nm; type: physicochemical; settings: for % NAT degradation ± 1SD: ICH light stress (1.2 million lux-hours, 200 W-hours/m^2 UV, 24 hours), 0.3 mM NAT
Description: A light box [Atlas SunTEST CPS+ Xenon Light Box (Chicago, Ill.)] designed to conduct the drug substance/product photostability test recommended by the International Conference on Harmonization (ICH) Expert Working Group was utilized to provide light stress to NAT-containing samples. The ICH photostability test is defined as 1.2 million lux-hours of white light and 200 W-hours/m^2 of UV light; the light box was programmed to provide the stress over a period of 24 hours. Histidine and non-histidine buffers containing 0.3 mM NAT ±5 mM L-Met were aliquoted into sterile glass vials (1 ml/vial). The vials were capped and placed on their side in the light box to maximize exposure to the light source. A control sample for each buffer condition was covered in foil and placed in the light box for the duration of exposure. For consistency with the other stress models, prior to HPLC analysis, the buffer solutions were diluted with Milli-Q H2O to a final NAT concentration of 0.2 mM.
NAT and NAT degradants were separated on an Agilent 1200 series HPLC or Waters H Class UPLC using an Agilent ZORBAX SB-C18 3.5 μm, 4.6×75 mm reverse phase column. Column temperature was held at 30±0.8° C. by a thermostat controller. The gradients used for HPLC and UPLC are listed in Tables 5 and 6, respectively (note: the shorter gradient on the UPLC was designed to accommodate earlier retention times and the column re-equilibration period was elongated due to the larger range of system pressure at a flow rate of 1.0 ml/min). NAT degradation products were detected at 240 nm. The standard bandwidth setting (8 nm for Agilent 1200 HPLC, 4.8 nm for Waters H-Class) was used for analysis on each instrument. The autosampler was maintained at 5±3° C. 10 nmol of NAT and/or NAT degradants (50 μl for most samples) was injected on to the column for analysis. The chromatograms were processed using Dionex Chromeleon software.
Total NAT degradation for each sample was calculated by comparing NAT peak area to the control sample for each stress model (Table 7). NAT degradation ranged from 3% (thermal stress, non-His buffer) to 83% (ICH light stress, His buffer).

[2] = Real time stability of NAT in drug product formulations; type: physicochemical
Description: NAT and NAT degradants were separated on an Agilent 1200 series HPLC or Waters H Class UPLC using an Agilent ZORBAX SB-C18 3.5 μm, 4.6×75 mm reverse phase column. Column temperature was held at 30±0.8° C. by a thermostat controller. The gradients used for HPLC and UPLC are listed in Tables 5 and 6, respectively (note: the shorter gradient on the UPLC was designed to accommodate earlier retention times and the column re-equilibration period was elongated due to the larger range of system pressure at a flow rate of 1.0 ml/min). NAT degradation products were detected at 240 nm. The standard bandwidth setting (8 nm for Agilent 1200 HPLC, 4.8 nm for Waters H-Class) was used for analysis on each instrument. The autosampler was maintained at 5±3° C. 10 nmol of NAT and/or NAT degradants (50 μl for most samples) was injected on to the column for analysis. The chromatograms were processed using Dionex Chromeleon software. Protein-containing samples were diluted in guanidine and the proteins removed via ultra-filtration (Amicon spin filters with a 30 kDa molecular weight cut-off). […] Using the final sample preparation conditions, recovery of NAT was 94-99% for three tested antibody/antibody derivatives and recovery of NAT degradants was 98-100% (data not shown). With this model experience in hand, the amount of NAT oxidation expected to occur in the manufacturing and storage of mAbs was explored next. FIG. 12 illustrates the comparison of the AAPH model stress system with an antibody at 150 mg/ml (1.0 mM) co-formulated with NAT, Met, and other excipients typical of mAb formulations. Results are shown for the initial time point, at −20° C. and 5° C. for six months (representative of typical storage conditions), and 25° C. for 6 months (representative of accelerated stability conditions). Oxidation levels were negligible directly after manufacturing and under the typical storage conditions tested.

## CC(=O)N[C@@H](Cc1c[nH]c2ccccc12)C(=O)O [NAT, N-acetyl-tryptophan]
[1]; His + 5 mM Met buffer
  % NAT degradation ± 1SD: 17.6 ± 0.7 (n = 2) %
[1]; His buffer
  % NAT degradation ± 1SD: 83.4 ± 0.2 (n = 2) %
[1]; Non-His + 5 mM Met buffer
  % NAT degradation ± 1SD: 18 ± 2 (n = 2) %
[1]; Non-His buffer
  % NAT degradation ± 1SD: 28% and 28.0 ± 0.1 (n = 2) %
[1]; ICH light stress conditions
  improvement to NAT stability by 5 mM Met (total NAT loss): 10-16%
[2]; 3 months at 25° C., corresponding vehicle (formulation without protein)
  loss of NAT: 1%
[2]; 3 months at 25° C., protein containing sample (antibody 150 mg/ml, NAT, Met, excipients)
  NAT loss: 7.5%
[2]; directly after manufacturing and at −20° C. and 5° C. for six months, antibody 150 mg/ml co-formulated with NAT, Met
  NAT oxidation levels: negligible
[2]; six months at 25° C., antibody at 150 mg/ml (1.0 mM) co-formulated with NAT, Met and other excipients
  total NAT loss: 16.8%
[2]; vehicle (formulation without protein) at higher temperatures
  NAT degradation: minimal NAT degradation
